What was measured:
Type in all cases: binding
CHIP-WT or CHIP-G132N = test: Fluorescence polarization, phosphorylated vs unmodified EEVD peptide; conditions: FP, CHIP-WT or CHIP-G132N (Fig. 2B)
Excerpt: (§1) A complete list of vectors is listed in Table S1 and deposited at Addgene (pending ID). Plasmids were maintained and propagated in DH5-alpha E. coli and purified using the Miniprep plasmid kit (Qiagen) or Quantum Prep® Plasmid Midiprep Kit (Bio-Rad). We used the Q5 Site-Directed Mutagenesis Kit (NEB) or […] II XL (NC9045762, Agilent Technologies) site-directed mutagenesis kit for editing plasmids and validated via DNA sequencing. Lifetein or Genscript synthesized the peptides used in the study. […] The amino-terminal biotin-labeled HSP70 tail peptide (biotin-[…], termed as biotin-EEVD) and the amino-terminal biotin-labeled pT-HSP70 tail peptide (biotin-GSGSGP(pT)IEEVD, termed as biotin-pEEVD) were purchased (Lifetein). The peptides used for fluorescent polarization were N-FITC-Ahx-[…] (EEVD) or N-FITC-Ahx-GSGP(pT)IEEVD (pEEVD). Recombinant CHIP-TPR constructs were recombinantly expressed using the pHis//2 CHIP-TPR (21–154) plasmid and purified as previously described ([21]) and additional CHIP proteins were purified as previously described ([22]).
The N-terminally-labelled peptides were loaded into PCR reaction tubes at 2X (40 nM), with the final concentration being 20 nM. Recombinant CHIP constructs were added into the tubes at the indicated concentrations. […] The polarization reads were normalized to the dilution buffer. […]

[1] = molecular target: T1, CHIP TPR (residues 21–154) (Homo sapiens, UniProt Q9UNE7); test: Biolayer interferometry, CHIP TPR (21-154); conditions: BLI; pEEVD vs EEVD; Fig. 2E
T1 construct: the extended TPR domain of CHIP (residues 21–154) using BLI; His; made in house
Excerpt: as §1
Bio-layer interferometry measured peptide binding using a BLItz instrument (FortéBio, Sartorius) with streptavidin (SA) sensors. […] Affinities (Kd) were calculated by the BLItz Pro software as Kd=koff/kon, where koff and kon were determined by individual fits to the “dissociation step” and “association step,” respectively, for each run.

CHIP-G132N = molecular target: T2, CHIP-G132N (Homo sapiens, UniProt Q9UNE7, G132N); test: Biolayer interferometry, CHIP-G132N TPR; conditions: BLI; kon; CHIP-G132N TPR towards pEEVD; Fig. S2
T2 construct: Recombinant CHIP-TPR constructs were recombinantly expressed using the pHis//2 CHIP-TPR (21–154) plasmid; His; made in house
T2 sequence (Q9UNE7 21-154 G132N): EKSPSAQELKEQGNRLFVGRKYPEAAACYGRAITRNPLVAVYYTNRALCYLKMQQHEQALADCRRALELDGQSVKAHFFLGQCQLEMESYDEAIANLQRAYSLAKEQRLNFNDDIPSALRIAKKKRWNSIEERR
Method: Bio-layer interferometry measured peptide binding using a BLItz instrument (FortéBio, Sartorius) with streptavidin (SA) sensors. Biotin-EEVD and biotin-pEEVD were solubilized in 20 mM HEPES, 150 mM NaCl, pH 7.0. Affinity measurements were made using the advanced kinetic protocol within the BLItz Pro system software. Biosensors were hydrated for ten minutes in assay buffer comprising 20 mM HEPES, 150 mM NaCl, 5 mM β-mercaptoethanol, pH 7.2. For each affinity measurement, a new, hydrated biosensor was placed on the BLItz tip, and the “Initial Baseline” step was completed by incubation for 30 seconds in 500 μl assay buffer in an opaque black microcentrifuge tube (Argos Technologies). Peptides were loaded during the “Loading Step” by incubating the tip in 4 μl of either peptide for 60 seconds. The “Baseline step” was then conducted by incubation for 30 seconds in 500 μl assay buffer in an opaque black microcentrifuge tube. The “Association step” was performed by incubating the tip in 4 μl of the appropriate TPR protein construct, at protein concentrations of 1 to 25 μM, in assay buffer in an opaque black microcentrifuge tube for 120 seconds. […] Affinities (Kd) were calculated by the BLItz Pro software as Kd=koff/kon, where koff and kon were determined by individual fits to the “dissociation step” and “association step,” respectively, for each run.

T1 sequence (Q9UNE7 21-154): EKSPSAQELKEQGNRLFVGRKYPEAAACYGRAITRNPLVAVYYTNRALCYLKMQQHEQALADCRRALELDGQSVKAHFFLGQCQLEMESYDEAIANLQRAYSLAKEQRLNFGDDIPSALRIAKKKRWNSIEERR

For “N-FITC-Ahx-GSGP(pT)IEEVD [pEEVD, phosphorylated HSP70 tail peptide used for fluorescent polarization]”, the “decrease in interaction compared to the unmodified threonine” value (CHIP-WT or CHIP-G132N) was 6–10 fold, the “decrease in binding affinity of CHIP TPR towards the phosphorylated EEVD tail” value [1] was roughly 10 fold and the “association rate” value (CHIP-G132N) was “higher association rates”.

Source: paper doi:10.1101/2025.02.17.637997, “Phosphorylation-State Modulated Binding of HSP70: Structural Insights and Compensatory Protein Engineering” (bioRxiv, 2025)
